Experimental data published in ChEMBL document CHEMBL1143399, “A small-molecule nitroimidazopyran drug candidate for the treatment of tuberculosis” (Nature, 2000).
Activity calls are given as the source filed them. No cut-off for these calls is given here.

Assays:
Type in all cases: functional, organism-based
Settings in all cases: variant bovis BCG
[1] = test system: Mycobacterium tuberculosis; experiment: Inhibition of protein synthesis in log phase Mycobacterium bovis BCG assessed as [35S] incorporation after 3 hrs
[2] = test system: Mycobacterium tuberculosis; experiment: Inhibition of lipid synthesis in log phase Mycobacterium bovis BCG assessed as [14C] acetate incorporation after 3 hrs by chromatography
[3] = test system: Mycobacterium tuberculosis; experiment: Inhibition of nucleic acid synthesis in Mycobacterium bovis BCG

How did the Activity [1] turn out when `O=[N+]([O-])c1cn2c(n1)OC[C@@H](OCc1ccc(OC(F)(F)F)cc1)C2` [PRETOMANID] was run?
Its Activity is “Active”.

And the Activity [2]?
Its Activity is “inactive”.

And the Activity [3]?
The Activity was “inactive”.
